Patent publication US20230165831A1, “METHOD AND COMPOSITION FOR RENDERING CANCER CELLS SUSCEPTIBLE TO TREATMENT BY TARGETED ONCOGENETIC DRIVERS” (IMPACT BIOLIFE SCIENCE, INC., priority 2021, published 2023)
Like-named read-outs stand apart in the source and are kept apart here.

Tests used:
[1] = tested on: lung adenocarcinoma line A549 cells; assay: CTG (CellTiter-Glo) cell viability assay, 6×6 combo matrix, 72 h, A549; details: A549;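 note: luminescent ATP readout with CellTiter-Glo after compound exposure, used to assess growth inhibition and combination synergy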
Method: (§1) To measure the cell inhibition effect of compounds and synergy effect of test articles on ten (10) cell lines using standard CTG assay.
(§2) 7) Using complete cell medium, adjust the volume of the suspension to achieve a cell concentration.
(§3) A549, T47D, SK-OV-3, MKN45, SK-Hep-1, HT-29, Capan-1, 786-O and LNCaP cell line, for compounds and vehicle groups, the seeding density of cell lines is 3000 cells/80 µL per well. For blank groups, add 100 µL medium. For PBS groups, add 100 µL PBS.
(§4) 8) Incubate the U87MG, A549, T47D, SK-OV-3, MKN45, SK-Hep-1, HT-29, Capan-1, 786-O and LNCaP cells overnight at 37° C./5% CO2.
(§5) Solid compound of cis-platinum was solubilized in PBS to a stock solution of 3.333 mM.
(§6) Final volume is 100 µL per well at this point.
(§7) 5) Incubate the plates at 37° C./5% CO2 for 72 hours.
(§8) 1) Incubate the plates at room temperature and away from light for 30 minutes.
(§9) 3) Add 100 µL /well of CellTiter-Glo® Reagent in each well. Avoid light.
(§10) 4) Mix contents for 2 minutes on an orbital shaker.
(§11) 5) Incubate plate at room temperature for 10 minutes to stabilize the luminescent signal.
6) Read plates in Envision.

[2] = tested on: pancreatic cancer line Capan-1 cells; assay: CTG (CellTiter-Glo) cell viability assay, 6×6 combo matrix, 72 h, Capan-1; type: cell-based; details: for Relatively Cell inhibition of vehicle control(%): Capan-1
In short: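 Capan-1 cells were seeded at 3000 cells per well and incubated overnight at 37 °C/5% CO2. They were then treated with compounds in a 6×6 combination matrix for 72 h at 37 °C/5% CO2. Viability was read by CellTiter-Glo luminescence to assess inhibition and synergy.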

[3] = tested on: Liver cancer line SK-HEP-1 cells;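 note: luminescent signal read after 72 h compound exposure at 37 °C under 5% CO2, with medium-only wells serving as blank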
[4] = tested on: prostate adenocarcinoma line LNCap cells; assay: CTG (CellTiter-Glo) cell viability assay, 6×6 combo matrix, 72 h, LNCaP; details: Homo sapiens, LNCaP;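 note: luminescence signal read after adding CellTiter-Glo reagent, with cells exposed to compounds for 72 h at 37 °C under 5% CO2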
Method: as §1, §2
(§12) b. A549, T47D, SK-OV-3, MKN45, SK-Hep-1, HT-29, Capan-1, 786-O and LNCaP cell line, for compounds and vehicle groups, the seeding density of cell lines is 3000 cells/80 µL per well. For blank groups, add 100 µL medium. For PBS groups, add 100 µL PBS.
as §4, §5, §6, §7, §8, §9, §10, §11
6) Read plates in Envision.

[5] = tested on: prostate adenocarcinoma line LNCap cells;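 note: luminescence signal read after adding CellTiter-Glo reagent, with cells exposed to compounds for 72 h at 37 °C under 5% CO2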
Method: as §1, §2, §12, §4, §5, §6, §7, §8, §9, §10, §11
6) Read plates in Envision.

[6] = tested on: gastric cancer line MKN45 cells; assay: CTG (CellTiter-Glo) cell viability assay, 6×6 combo matrix, 72 h, MKN45;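 note: MKN45 cell viability read as CellTiter-Glo luminescence after 72 h culture at 37 °C under 5% CO2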
Method: as §1, §2, §3, §4, §5, §6, §7, §8, §9, §10, §11
6) Read plates in Envision.

[7] = tested on: Liver cancer line SK-HEP-1 cells; assay: CTG (CellTiter-Glo) cell viability assay, 6×6 combo matrix, 72 h, SK-Hep-1; details: Homo sapiens;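 note: luminescent signal read after 72 h compound exposure at 37 °C under 5% CO2, with medium-only wells serving as blank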
[8] = tested on: breast cancer line T47D cells;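 note: luminescence read-out after 72 h at 37 °C under 5% CO2, with medium-only wells as blanks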
[9] = tested on: kidney cancer line 786-O cells;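 note: luminescence read-out after adding CellTiter-Glo reagent, with cells incubated at 37 °C under 5% CO2 during compound exposure, part of a ten cell line synergy study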
Method: as §1, §2, §12, §4, §5, §6, §7, §8, §9, §10, §11
6) Read plates in Envision.

[10] = tested on: kidney cancer line 786-O cells; assay: CTG (CellTiter-Glo) cell viability assay, 6×6 combo matrix, 72 h, 786-O; details: for Relatively Cell inhibition of vehicle control(%): 786-O;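 for all read-outs here: luminescence read-out after adding CellTiter-Glo reagent, with cells incubated at 37 °C under 5% CO2 during compound exposure, part of a ten cell line synergy study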
Method: as §1, §2, §12, §4, §5, §6, §7, §8, §9, §10, §11
6) Read plates in Envision.

[11] = tested on: colorectal cancer line HT29 cells; assay: CTG (CellTiter-Glo) cell viability assay, 6×6 combo matrix, 72 h, HT29; details: for Relatively Cell inhibition of vehicle control(%): HT29;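 for all read-outs here: cells exposed to compounds for 72 hours at 37 °C under 5% CO2, then viability read as luminescence after adding CellTiter-Glo Reagent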
[12] = tested on: glioblastoma line U87MG cells; assay: CTG (CellTiter-Glo) cell viability assay, 6×6 combo matrix, 72 h, U87MG; details: Homo sapiens, U-87 MG;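 note: U87MG cells seeded at 2000 per well, exposed 72 h, viability read by CellTiter-Glo luminescence, inhibition expressed relative to vehicle-treated wells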
Method: as §1, §2
U87MG cell lines, for compounds and vehicle groups, the seeding density of cell lines is 2000 cells/80 µL per well. For blank groups, add 100 µL medium. For PBS groups, add 100 µL PBS.
as §4, §5, §6, §7, §8, §9, §10, §11
6) Read plates in Envision.

[13] = tested on: ovarian cancer line SK-OV3 cells;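 note: luminescent signal read after CellTiter-Glo addition, cells exposed to compounds for 72 h at 37 °C under 5% CO2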
Method: as §1, §2, §3, §4, §5, §6, §7, §8, §9, §10, §11
6) Read plates in Envision.

[14] = tested on: breast cancer line T47D cells; assay: CTG (CellTiter-Glo) cell viability assay, 6×6 combo matrix, 72 h, T47D; details: Homo sapiens;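 note: luminescence read-out after 72 h at 37 °C under 5% CO2, with medium-only wells as blanks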
[15] = Homo sapiens, 786-0, read-out: Relatively Cell inhibition of vehicle control
[16] = Homo sapiens, HT-29, read-out: Relatively Cell inhibition of vehicle control(%)

`CC(=O)O[C@H]1C(=O)[C@@]2(C)[C@H]([C@H](OC(=O)c3ccccc3)[C@]3(O)C[C@H](OC(=O)[C@H](O)[C@@H](NC(=O)c4ccccc4)c4ccccc4)C(C)=C1C3(C)C)[C@]1(OC(C)=O)CO[C@@H]1C[C@@H]2O` [taxol, paclitaxel] was tested, and the “Relatively Cell inhibition of vehicle control(%)” value ([1]; Tax 8 nM only (LB-1 matrix)) was 55.11%, the “Relatively Cell inhibition of vehicle control(%)” value ([1]; Tax 8 nM only (myricetin matrix)) was 53.76% and the “Relatively Cell inhibition of vehicle control(%)” value ([1]; Tax 40 nM only (LB-1 matrix)) was 68.79%. The “Relatively Cell inhibition of vehicle control(%)” value ([1]; Tax 40 nM only (myricetin matrix)) was 68.03%, the “Relatively Cell inhibition of vehicle control(%)” value ([1]; Tax 200 nM only (LB-1 matrix)) was 77.44% and the “Relatively Cell inhibition of vehicle control(%)” value ([1]; Tax 200 nM only (myricetin matrix)) was 75.24%. The “Relatively Cell inhibition of vehicle control(%)” value ([1]; Tax 1000 nM only (LB-1 matrix)) was 76.64%, the “Relatively Cell inhibition of vehicle control(%)” value ([1]; Tax 1000 nM only (myricetin matrix)) was 77.27% and the inhibition at […] ([2]; Homo sapiens, CAPAN-1, taxol 1.6 nM only, read-out: Relatively Cell inhibition of vehicle control) was 17.2%. For the same compound, the inhibition at 0.008 µM ([2]; Homo sapiens, CAPAN-1, taxol 8 nM only, read-out: Relatively Cell inhibition of vehicle control) was 54.3%, the inhibition at 0.04 µM ([2]; Homo sapiens, CAPAN-1, taxol 40 nM only, read-out: Relatively Cell inhibition of vehicle control) was 65.8% and the inhibition at 0.2 µM ([2]; Homo sapiens, CAPAN-1, taxol 200 nM only, read-out: Relatively Cell inhibition of vehicle control) was 65.4%. The inhibition at 1 µM ([2]; Homo sapiens, CAPAN-1, taxol 1000 nM only, read-out: Relatively Cell inhibition of vehicle control) was 67.2%, the “Relatively Cell inhibition of vehicle control(%)” value ([2]; Tax 8 nM only) was 51.97% and the “Relatively Cell inhibition of vehicle control(%)” value ([2]; Tax 40 nM only) was 62.89%. For the same compound, the “Relatively Cell inhibition of vehicle control(%)” value ([2]; Tax 200 nM only) was 63.24%, the “Relatively Cell inhibition of vehicle control(%)” value ([2]; Tax 1000 nM only) was 64.00% and the inhibition [3] was 0.78%. It also gave an inhibition at 0.008 µM ([4]; read-out: Relatively Cell inhibition of vehicle control(%), taxol 8 nM only (LB-1 plate)) of 54%, an inhibition at 0.008 µM ([4]; read-out: Relatively Cell inhibition of vehicle control(%), taxol 8 nM only (myricetin plate)) of 62.6% and an inhibition at 0.04 µM ([4]; read-out: Relatively Cell inhibition of vehicle control(%), taxol 40 nM only (LB-1 plate)) of 59.2%. The inhibition at 0.04 µM ([4]; read-out: Relatively Cell inhibition of vehicle control(%), taxol 40 nM only (myricetin plate)) was 65.5%, the inhibition at 0.2 µM ([4]; read-out: Relatively Cell inhibition of vehicle control(%), taxol 200 nM only (LB-1 plate)) was 56.4% and the inhibition at 0.2 µM ([4]; read-out: Relatively Cell inhibition of vehicle control(%), taxol 200 nM only (myricetin plate)) was 62.2%. For the same compound, the inhibition at 1 µM ([4]; read-out: Relatively Cell inhibition of vehicle control(%), taxol 1000 nM only (LB-1 plate)) was 48.8%, the inhibition at 1 µM ([4]; read-out: Relatively Cell inhibition of vehicle control(%), taxol 1000 nM only (myricetin plate)) was 55.6% and the inhibition [5] was 9.88%. The “Relatively Cell inhibition of vehicle control(%)” value ([6]; Tax 8 nM only (LB-1 0)) was 52.04%, the “Relatively Cell inhibition of vehicle control(%)” value ([6]; Tax 8 nM only (Myr 0)) was 50.47% and the “Relatively Cell inhibition of vehicle control(%)” value ([6]; Tax 40 nM only (LB-1 0)) was 48.11%. For the same compound, the “Relatively Cell inhibition of vehicle control(%)” value ([6]; Tax 40 nM only (Myr 0)) was 56.30%, the “Relatively Cell inhibition of vehicle control(%)” value ([6]; Tax 200 nM only (LB-1 0)) was 64.94% and the “Relatively Cell inhibition of vehicle control(%)” value ([6]; Tax 200 nM only (Myr 0)) was 68.16%. For the same compound, the “Relatively Cell inhibition of vehicle control(%)” value ([6]; Tax 1000 nM only (LB-1 0)) was 70.65%, the “Relatively Cell inhibition of vehicle control(%)” value ([6]; Tax 1000 nM only (Myr 0)) was 69.93% and the inhibition at 0.008 µM ([7]; SK-HEP1, read-out: Relatively Cell inhibition of vehicle control, taxol 8 nM only (LB-1 table)) was 30.6%. For the same compound, the inhibition at 0.008 µM ([7]; SK-HEP1, read-out: Relatively Cell inhibition of vehicle control, taxol 8 nM only (myricetin table)) was 36%, the inhibition at 0.04 µM ([7]; SK-HEP1, read-out: Relatively Cell inhibition of vehicle control, taxol 40 nM only (LB-1 table)) was 59.5% and the inhibition at 0.04 µM ([7]; SK-HEP1, read-out: Relatively Cell inhibition of vehicle control, taxol 40 nM only (myricetin table)) was 62.4%. The inhibition at 0.2 µM ([7]; SK-HEP1, read-out: Relatively Cell inhibition of vehicle control, taxol 200 nM only (LB-1 table)) was 68.8%, the inhibition at 0.2 µM ([7]; SK-HEP1, read-out: Relatively Cell inhibition of vehicle control, taxol 200 nM only (myricetin table)) was 65.2% and the inhibition at 1 µM ([7]; SK-HEP1, read-out: Relatively Cell inhibition of vehicle control, taxol 1000 nM only (LB-1 table)) was 78%. It also gave an inhibition at 1 µM ([7]; SK-HEP1, read-out: Relatively Cell inhibition of vehicle control, taxol 1000 nM only (myricetin table)) of 78.8%, an inhibition [8] of 17% and an inhibition [9] of 3.15%. It also gave an inhibition at 0.008 µM [10, 15] of 12.2%, an inhibition at 0.04 µM [10, 15] of 42.6% and an inhibition at 0.2 µM [10, 15] of 70%. For the same compound, the inhibition at 1 µM [10, 15] was 74.1%, the “Relatively Cell inhibition of vehicle control(%)” value ([10]; Tax 8 nM only (LB-1 0)) was 12.57% and the “Relatively Cell inhibition of vehicle control(%)” value ([10]; Tax 40 nM only (LB-1 0)) was 43.18%. The “Relatively Cell inhibition of vehicle control(%)” value ([10]; Tax 200 nM only (LB-1 0)) was 69.53%, the “Relatively Cell inhibition of vehicle control(%)” value ([10]; Tax 1000 nM only (LB-1 0)) was 73.05% and the inhibition at 0.008 µM [11, 16] was 67.9%. For the same compound, the inhibition at 0.04 µM [11, 16] was 83.4%, the inhibition at 0.2 µM [11, 16] was 83.1% and the inhibition at 1 µM [11, 16] was 82%. The “Relatively Cell inhibition of vehicle control(%)” value ([11]; Tax 8 nM only (Myr 0)) was 73.73%, the “Relatively Cell inhibition of vehicle control(%)” value ([11]; Tax 40 nM only (Myr 0)) was 80.46% and the “Relatively Cell inhibition of vehicle control(%)” value ([11]; Tax 200 nM only (Myr 0)) was 81.35%. The “Relatively Cell inhibition of vehicle control(%)” value ([11]; Tax 1000 nM only (Myr 0)) was 79.03%, the inhibition at 0.008 µM ([12]; 72 h, read-out: Relatively Cell inhibition of vehicle control(%), U87MG, 8 nM taxol only (LB-1 0), 72 h) was 42.7% and the inhibition at 0.04 µM ([12]; 72 h, read-out: Relatively Cell inhibition of vehicle control(%), U87MG, 40 nM taxol only (LB-1 0), 72 h) was 53.9%. The inhibition at 0.2 µM ([12]; 72 h, read-out: Relatively Cell inhibition of vehicle control(%), U87MG, 200 nM taxol only (LB-1 0), 72 h) was 67.8%, the inhibition at 1 µM ([12]; 72 h, read-out: Relatively Cell inhibition of vehicle control(%), U87MG, 1000 nM taxol only (LB-1 0), 72 h) was 66.2% and the inhibition at 0.008 µM ([12]; read-out: Relatively Cell inhibition of vehicle control(%), taxol 8 nM only) was 46.5%. It also gave an inhibition at 0.04 µM ([12]; read-out: Relatively Cell inhibition of vehicle control(%), taxol 40 nM only) of 60.6%, an inhibition at 0.2 µM ([12]; read-out: Relatively Cell inhibition of vehicle control(%), taxol 200 nM only) of 72.2% and an inhibition at 1 µM ([12]; read-out: Relatively Cell inhibition of vehicle control(%), taxol 1000 nM only) of 69.8%. The inhibition [13] was 17.4%, the inhibition at 0.008 µM ([14]; read-out: Relatively Cell inhibition of vehicle control(%), T47D, 8 nM taxol only (LB-1 0)) was 33.2% and the inhibition at 0.008 µM ([14]; read-out: Relatively Cell inhibition of vehicle control(%), T47D, 8 nM taxol only (myricetin 0)) was 40.8%. It also gave an inhibition at 0.04 µM ([14]; read-out: Relatively Cell inhibition of vehicle control(%), T47D, 40 nM taxol only (LB-1 0)) of 42.2%, an inhibition at 0.04 µM ([14]; read-out: Relatively Cell inhibition of vehicle control(%), T47D, 40 nM taxol only (myricetin 0)) of 48.6% and an inhibition at 0.2 µM ([14]; read-out: Relatively Cell inhibition of vehicle control(%), T47D, 200 nM taxol only (LB-1 0)) of 42%. It also gave an inhibition at 0.2 µM ([14]; read-out: Relatively Cell inhibition of vehicle control(%), T47D, 200 nM taxol only (myricetin 0)) of 48.5%, an inhibition at 1 µM ([14]; read-out: Relatively Cell inhibition of vehicle control(%), T47D, 1000 nM taxol only (LB-1 0)) of 38% and an inhibition at 1 µM ([14]; read-out: Relatively Cell inhibition of vehicle control(%), T47D, 1000 nM taxol only (myricetin 0)) of 45.8%.
